Several values for one entry are separate records, joined by “and”; a condition that tells them apart may be missing. Equal values may be shown once. Inconclusive results and toxic doses are left out.

The subject of this test is CD2F1 mice, L1210 leukemia ip, survival T/C. In words: NCI In Vivo Anticancer Drug Screen. Data for tumor model L1210 Leukemia (intraperitoneal) in CD2F1 (CDF1) mice. The note with it: higher = longer survival. Put shortly: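 In this screen, transplantable tumors were grown in mice given either the compound or its vehicle. Results were expressed as the treated measurement relative to the control measurement.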

With `N[C@@H](Cc1ccc(N(CCCl)CCCl)cc1)C(=O)O`, the T/C is 106 % of control and 108 % of control (endpoint: mean survival time, dose: 0.25 mg/kg/injection, schedule: Q01DX009 (ip), vehicle: Klucel (hydroxypropylcellulose) (HPC)); 106 % of control (endpoint: mean survival time, dose: 0.25 mg/kg/injection, schedule: Q01DX009 (ip), vehicle: saline); 113 % of control (endpoint: mean survival time, dose: 0.25 mg/kg/injection, schedule: Q04DX003 (ip), vehicle: saline); 113 % of control and 112 % of control (endpoint: mean survival time, dose: 0.5 mg/kg/injection, schedule: Q01DX009 (ip), vehicle: water); 118 % of control (endpoint: mean survival time, dose: 0.5 mg/kg/injection, schedule: Q04DX003 (ip), vehicle: saline); 115 % of control (endpoint: mean survival time, dose: 0.75 mg/kg/injection, schedule: Q01DX009 (ip), vehicle: Klucel (hydroxypropylcellulose) (HPC)). Further, the T/C is 115 % of control and 123 % of control (endpoint: mean survival time, dose: 1.0 mg/kg/injection, schedule: Q01DX009 (ip), vehicle: water); 118 % of control (endpoint: mean survival time, dose: 1.0 mg/kg/injection, schedule: Q## X010 (oral), vehicle: saline); 118 % of control (endpoint: mean survival time, dose: 2.0 mg/kg/injection, schedule: Q01DX001 (ip), vehicle: Klucel (hydroxypropylcellulose) (HPC)); 108 % of control (endpoint: mean survival time, dose: 2.0 mg/kg/injection, schedule: Q01DX001 (ip), vehicle: other); 122 % of control (endpoint: mean survival time, dose: 2.0 mg/kg/injection, schedule: Q01DX001 (ip), vehicle: saline with Tween-80); 121 % of control (endpoint: mean survival time, dose: 2.0 mg/kg/injection, schedule: Q01DX005 (oral), vehicle: saline). The T/C by setting is: (endpoint: mean survival time, dose: 2.0 mg/kg/injection, schedule: Q01DX007 (ip), vehicle: saline) 166 % of control; (endpoint: mean survival time, dose: 2.0 mg/kg/injection, schedule: Q01DX009 (ip), vehicle: water) 153 % of control; (endpoint: mean survival time, dose: 2.0 mg/kg/injection, schedule: Q## X016 (oral), vehicle: saline) 103 % of control; (endpoint: mean survival time, dose: 2.5 mg/kg/injection, schedule: Q01DX009 (ip), vehicle: saline) 166 % of control; (endpoint: mean survival time, dose: 2.5 mg/kg/injection, schedule: Q04DX003 (ip), vehicle: saline) 153 % of control; (endpoint: mean survival time, dose: 3.0 mg/kg/injection, schedule: Q01DX009 (ip), vehicle: Klucel (hydroxypropylcellulose) (HPC)) 164 % of control. Moreover, the T/C (endpoint: mean survival time, dose: 4.0 mg/kg/injection, schedule: Q01DX001 (ip), vehicle: Klucel (hydroxypropylcellulose) (HPC)) is 119 % of control; the T/C (endpoint: mean survival time, dose: 4.0 mg/kg/injection, schedule: Q01DX001 (ip), vehicle: other) was 121 % of control; the T/C (endpoint: mean survival time, dose: 4.0 mg/kg/injection, schedule: Q01DX007 (ip), vehicle: saline) is 168 % of control; the T/C (endpoint: mean survival time, dose: 4.0 mg/kg/injection, schedule: Q01DX009 (ip), vehicle: water) is 155 % of control and 208 % of control; the T/C (endpoint: mean survival time, dose: 4.0 mg/kg/injection, schedule: Q03DX003 (ip), vehicle: saline) is 170 % of control; the T/C (endpoint: mean survival time, dose: 4.0 mg/kg/injection, schedule: Q## X010 (ip), vehicle: saline) was 160 % of control. Further, the T/C was 104 % of control (endpoint: mean survival time, dose: 4.0 mg/kg/injection, schedule: Q## X016 (oral), vehicle: saline); 152 % of control (endpoint: mean survival time, dose: 4.5 mg/kg/injection, schedule: Q04DX003 (ip), vehicle: saline); 198 % of control (endpoint: mean survival time, dose: 5.0 mg/kg/injection, schedule: Q01DX009 (ip), vehicle: saline); 158 % of control (endpoint: mean survival time, dose: 6.0 mg/kg/injection, schedule: Q04DX003 (ip), vehicle: saline); 158 % of control (endpoint: mean survival time, dose: 7.5 mg/kg/injection, schedule: Q01DX001 (ip), vehicle: saline); 198 % of control (endpoint: mean survival time, dose: 7.5 mg/kg/injection, schedule: Q01DX009 (ip), vehicle: saline). In addition, the T/C runs as follows: (endpoint: mean survival time, dose: 7.5 mg/kg/injection, schedule: Q04DX003 (ip), vehicle: saline) 198 % of control and 266 % of control; (endpoint: mean survival time, dose: 8.0 mg/kg/injection, schedule: Q01DX001 (ip), vehicle: DMSO) 180 % of control; (endpoint: mean survival time, dose: 8.0 mg/kg/injection, schedule: Q01DX001 (ip), vehicle: Klucel (hydroxypropylcellulose) (HPC)) 180 % of control; (endpoint: mean survival time, dose: 8.0 mg/kg/injection, schedule: Q01DX001 (ip), vehicle: saline with Tween-80) 165 % of control; (endpoint: mean survival time, dose: 8.0 mg/kg/injection, schedule: Q01DX009 (ip), vehicle: water) 120 % of control and 108 % of control; (endpoint: mean survival time, dose: 8.0 mg/kg/injection, schedule: Q03DX003 (ip), vehicle: saline) 211 % of control. The T/C is, setting by setting: (endpoint: mean survival time, dose: 8.0 mg/kg/injection, schedule: Q## X010 (oral), vehicle: saline) 96 % of control; (endpoint: mean survival time, dose: 9.0 mg/kg/injection, schedule: Q04DX003 (ip), vehicle: saline) 217 % of control; (endpoint: mean survival time, dose: 12.0 mg/kg/injection, schedule: Q04DX003 (ip), vehicle: saline) 240 % of control; (endpoint: mean survival time, dose: 16.0 mg/kg/injection, schedule: Q01DX001 (ip), vehicle: DMSO) 221 % of control; (endpoint: mean survival time, dose: 16.0 mg/kg/injection, schedule: Q01DX001 (ip), vehicle: Klucel (hydroxypropylcellulose) (HPC)) 189 % of control; (endpoint: mean survival time, dose: 16.0 mg/kg/injection, schedule: Q01DX001 (ip), vehicle: saline with Tween-80) 265 % of control. In addition, the T/C reads like this: (endpoint: mean survival time, dose: 16.0 mg/kg/injection, schedule: Q## X016 (oral), vehicle: saline) 164 % of control; (endpoint: mean survival time, dose: 20.0 mg/kg/injection, schedule: Q01DX001 (ip), vehicle: saline) 303 % of control and 427 % of control; (endpoint: mean survival time, dose: 32.0 mg/kg/injection, schedule: Q01DX001 (ip), vehicle: Klucel (hydroxypropylcellulose) (HPC)) 115 % of control; (endpoint: mean survival time, dose: 32.0 mg/kg/injection, schedule: Q01DX001 (ip), vehicle: other) 217 % of control; (endpoint: mean survival time, dose: 32.0 mg/kg/injection, schedule: Q01DX001 (ip), vehicle: saline with Tween-80) 183 % of control; (endpoint: median survival time, dose: 1.0 mg/kg/injection, schedule: Q01DX009 (ip), vehicle: saline) 151 % of control. The T/C (endpoint: median survival time, dose: 1.25 mg/kg/injection, schedule: Q01DX009 (ip), vehicle: saline) is 170 % of control; the T/C (endpoint: median survival time, dose: 1.5 mg/kg/injection, schedule: Q04DX003 (ip), vehicle: Klucel (hydroxypropylcellulose) (HPC)) was 191 % of control; the T/C (endpoint: median survival time, dose: 2.0 mg/kg/injection, schedule: Q01DX005 (ip), vehicle: saline) was 152 % of control; the T/C (endpoint: median survival time, dose: 2.0 mg/kg/injection, schedule: Q01DX009 (ip), vehicle: saline) was 176 % of control; the T/C (endpoint: median survival time, dose: 2.5 mg/kg/injection, schedule: Q01DX001 (ip), vehicle: Klucel (hydroxypropylcellulose) (HPC)) is 150 % of control and 195 % of control; the T/C (endpoint: median survival time, dose: 2.5 mg/kg/injection, schedule: Q01DX009 (ip), vehicle: saline) is 205 % of control. Moreover, the T/C is 182 % of control (endpoint: median survival time, dose: 3.0 mg/kg/injection, schedule: Q04DX003 (ip), vehicle: Klucel (hydroxypropylcellulose) (HPC)); 158 % of control (endpoint: median survival time, dose: 3.75 mg/kg/injection, schedule: Q01DX009 (ip), vehicle: saline); 176 % of control (endpoint: median survival time, dose: 4.0 mg/kg/injection, schedule: Q01DX005 (ip), vehicle: saline); 227 % of control (endpoint: median survival time, dose: 4.0 mg/kg/injection, schedule: Q01DX009 (ip), vehicle: saline); 357 % of control (endpoint: median survival time, dose: 5.0 mg/kg/injection, schedule: Q01DX009 (ip), vehicle: saline); 211 % of control (endpoint: median survival time, dose: 8.0 mg/kg/injection, schedule: Q01DX005 (ip), vehicle: saline). The T/C is 234 % of control (endpoint: median survival time, dose: 8.0 mg/kg/injection, schedule: Q01DX009 (ip), vehicle: saline); 118 % of control (endpoint: median survival time, dose: 10.0 mg/kg/injection, schedule: Q01DX001 (ip), vehicle: Klucel (hydroxypropylcellulose) (HPC)); 183 % of control and 193 % of control (endpoint: median survival time, dose: 12.0 mg/kg/injection, schedule: Q01DX001 (ip), vehicle: saline); 114 % of control and 105 % of control (endpoint: median survival time, dose: 15.0 mg/kg/injection, schedule: Q01DX009 (ip), vehicle: saline).
Consider `O=C(N/N=C/c1cccc2ccccc12)C(O)c1ccccc1` (stereo not drawn), for which the T/C reads like this: (endpoint: mean survival time, dose: 100.0 mg/kg/injection, schedule: Q01DX009 (ip), vehicle: saline with Tween-80) 104 % of control; (endpoint: mean survival time, dose: 200.0 mg/kg/injection, schedule: Q01DX009 (ip), vehicle: saline with Tween-80) 101 % of control; (endpoint: mean survival time, dose: 400.0 mg/kg/injection, schedule: Q01DX009 (ip), vehicle: saline with Tween-80) 98 % of control.
For the molecule `NC(N)=NNC(=O)C(=O)O`, the T/C (endpoint: mean survival time, dose: 100.0 mg/kg/injection, schedule: Q01DX009 (ip), vehicle: saline) was 98 % of control; the T/C (endpoint: mean survival time, dose: 200.0 mg/kg/injection, schedule: Q01DX009 (ip), vehicle: saline) was 110 % of control; the T/C (endpoint: mean survival time, dose: 400.0 mg/kg/injection, schedule: Q01DX009 (ip), vehicle: saline) was 100 % of control.
In the case of `CCCCC#CC(C)C`, the T/C (endpoint: mean survival time, dose: 100.0 mg/kg/injection, schedule: Q04DX003 (ip), vehicle: saline with Tween-80) was 98 % of control; the T/C (endpoint: mean survival time, dose: 200.0 mg/kg/injection, schedule: Q04DX003 (ip), vehicle: saline with Tween-80) was 102 % of control; the T/C (endpoint: mean survival time, dose: 400.0 mg/kg/injection, schedule: Q04DX003 (ip), vehicle: saline with Tween-80) was 102 % of control.

(Values after PubChem BioAssay AID256 (DTP/NCI, 2004).)
